The target of data set [1] is T1, 5-hydroxytryptamine receptor 7 (Rattus norvegicus, UniProt P32305). The data set is described as follows: Displacement of [3H]5-CT from rat 5-HT7 receptor expressed in HEK293 cell membranes by radioligand binding assay.
Data set [2] can be described thus: Intrinsic clearance in human liver microsomes. It counts as ADME, microsome. As to conditions: read-out: CLH. A general note: Liver microsomes are a subcellular fraction often used to study metabolism.
Data set [3] addresses 5-hydroxytryptamine receptor 7 (Homo sapiens, UniProt P34969). The data set is described as follows: Binding affinity to 5-HT7 receptor (unknown origin).
Data set [4] addresses T1, 5-hydroxytryptamine receptor 7. Kind of data set: Displacement of [3H]lysergide from rat recombinant 5-HT7 receptor expressed in HEK293 cell membranes incubated for 60 mins by radioligand binding assay.
Data set [5] deals with T2, 5-hydroxytryptamine receptor 1A (Rattus norvegicus, UniProt P19327).
T2 sequence (P19327 whole entry): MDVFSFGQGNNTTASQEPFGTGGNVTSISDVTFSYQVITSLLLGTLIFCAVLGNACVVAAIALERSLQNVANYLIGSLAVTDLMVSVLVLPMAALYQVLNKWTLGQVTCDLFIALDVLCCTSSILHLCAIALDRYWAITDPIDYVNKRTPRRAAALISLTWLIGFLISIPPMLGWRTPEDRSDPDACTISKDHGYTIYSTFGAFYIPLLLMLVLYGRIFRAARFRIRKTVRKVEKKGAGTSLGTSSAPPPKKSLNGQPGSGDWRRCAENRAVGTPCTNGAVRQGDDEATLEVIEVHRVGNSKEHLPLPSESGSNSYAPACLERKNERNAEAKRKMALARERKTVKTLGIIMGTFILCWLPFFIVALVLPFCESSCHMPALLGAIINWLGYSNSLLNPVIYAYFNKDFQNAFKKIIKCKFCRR
Kind of data set: Displacement of [3H]-8-OH-DPAT from 5-HT1A in rat hippocampal membranes incubated for 20 mins by radioligand binding assay. In kind it is cell membranes.

A short description of data set [6]: Ratio of drug level in brain to plasma in mouse at 5 mg/kg, ip. As to conditions: read-out: BPR. It counts as ADME, organism-based.
The target in data set [7] is T1, 5-hydroxytryptamine receptor 7. The data set is described as follows: Displacement of [3H]-5-CT from 5-HT7 receptor in rat hypothalamus membranes by Cheng-Prusoff equation analysis. It counts as cell membranes, Membrane. In general terms: Loss of bound radioactivity is the signal in a displacement assay; it reports binding, not function.
For data set [8], the target named is T3, 5-hydroxytryptamine receptor 2C (Homo sapiens, UniProt P28335).
T3 sequence (P28335 whole entry): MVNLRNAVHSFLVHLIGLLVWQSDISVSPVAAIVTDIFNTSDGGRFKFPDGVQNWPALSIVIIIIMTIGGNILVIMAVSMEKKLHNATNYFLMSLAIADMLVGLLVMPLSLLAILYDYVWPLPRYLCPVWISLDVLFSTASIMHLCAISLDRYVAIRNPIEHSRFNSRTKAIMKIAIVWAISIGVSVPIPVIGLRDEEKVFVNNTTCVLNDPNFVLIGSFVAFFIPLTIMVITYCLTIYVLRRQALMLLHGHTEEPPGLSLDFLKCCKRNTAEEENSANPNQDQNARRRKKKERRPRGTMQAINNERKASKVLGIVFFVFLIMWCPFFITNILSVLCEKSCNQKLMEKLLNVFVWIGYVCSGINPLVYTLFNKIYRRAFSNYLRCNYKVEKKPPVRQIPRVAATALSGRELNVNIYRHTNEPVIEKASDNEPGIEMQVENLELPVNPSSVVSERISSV
The data set is described as follows: Binding affinity to 5-HT2c receptor (unknown origin).

Data set [9] concerns the target 5-hydroxytryptamine receptor 2A (Homo sapiens, UniProt P28223). Kind of data set: Binding affinity to 5-HT2A receptor (unknown origin).

In general, Ki refers to the dissociation constant of the complex between target and ligand, obtained from inhibition or displacement.

Chain of 5-hydroxytryptamine receptor 7 (Homo sapiens, UniProt P34969) (P34969 whole entry): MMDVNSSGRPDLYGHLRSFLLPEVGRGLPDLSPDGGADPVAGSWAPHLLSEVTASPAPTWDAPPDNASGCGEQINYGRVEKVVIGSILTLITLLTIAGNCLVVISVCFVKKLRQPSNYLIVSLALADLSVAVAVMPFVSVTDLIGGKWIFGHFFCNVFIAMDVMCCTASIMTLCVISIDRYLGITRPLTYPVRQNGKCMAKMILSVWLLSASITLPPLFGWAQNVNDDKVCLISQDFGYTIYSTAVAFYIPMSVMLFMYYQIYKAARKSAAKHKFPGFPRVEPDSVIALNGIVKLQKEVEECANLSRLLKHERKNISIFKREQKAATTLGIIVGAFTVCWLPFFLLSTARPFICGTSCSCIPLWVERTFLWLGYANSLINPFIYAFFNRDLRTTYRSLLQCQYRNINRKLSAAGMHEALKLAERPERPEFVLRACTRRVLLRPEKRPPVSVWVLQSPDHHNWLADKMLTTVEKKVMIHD
T1 sequence (P32305 whole entry): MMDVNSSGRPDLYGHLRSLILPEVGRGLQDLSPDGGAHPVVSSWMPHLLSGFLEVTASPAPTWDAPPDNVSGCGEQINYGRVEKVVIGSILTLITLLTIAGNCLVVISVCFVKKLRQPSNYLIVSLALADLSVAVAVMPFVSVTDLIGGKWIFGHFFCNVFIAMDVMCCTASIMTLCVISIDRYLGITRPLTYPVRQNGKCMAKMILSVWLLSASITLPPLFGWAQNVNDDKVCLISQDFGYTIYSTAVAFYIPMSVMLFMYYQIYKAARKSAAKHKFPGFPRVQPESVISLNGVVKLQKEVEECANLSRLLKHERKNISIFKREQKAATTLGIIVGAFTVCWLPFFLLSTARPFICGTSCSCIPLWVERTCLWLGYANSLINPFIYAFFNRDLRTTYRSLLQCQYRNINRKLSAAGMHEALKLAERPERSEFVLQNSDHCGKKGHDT
Chain of 5-hydroxytryptamine receptor 2A (P28223 whole entry): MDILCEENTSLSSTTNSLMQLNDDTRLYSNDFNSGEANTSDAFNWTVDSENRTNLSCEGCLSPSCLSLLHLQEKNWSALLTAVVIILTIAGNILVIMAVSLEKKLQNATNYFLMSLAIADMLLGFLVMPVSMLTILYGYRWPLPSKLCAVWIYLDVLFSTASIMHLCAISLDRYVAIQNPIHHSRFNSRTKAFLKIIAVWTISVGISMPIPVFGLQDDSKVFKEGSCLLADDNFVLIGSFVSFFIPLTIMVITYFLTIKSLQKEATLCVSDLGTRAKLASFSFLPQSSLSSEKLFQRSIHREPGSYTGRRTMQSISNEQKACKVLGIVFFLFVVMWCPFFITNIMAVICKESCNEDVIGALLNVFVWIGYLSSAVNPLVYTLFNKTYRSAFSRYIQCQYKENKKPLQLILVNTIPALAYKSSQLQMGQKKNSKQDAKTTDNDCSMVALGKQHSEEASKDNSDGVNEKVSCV

`Clc1ccc(-c2nn(Cc3ccccc3)c3c2CCNCC3)cc1` [JNJ-18038683 FREE BASE] had a Ki in data set [1] of 6.5 nM. `CCn1cncc1-c1c[nH]c2ccc(I)cc12`: the CLint scaled in [2] worked out at 0.378 L/h/kg.

For `CNC(=O)CN1c2ccccc2C2CCN(CCCCC34CCCc5cccc(c53)NC4=O)CC21` (centres undefined), the Ki in data set [3] is 4 nM.

In data set [3], `Cc1nn(C)c(C)c1-c1cccc(CCN(C)C)c1` registered a Ki of 2.5 nM. In the case of `COc1cccc(CCN2CCN(c3ccccc3-c3ccccc3)CC2)c1`, the Ki is 7.5 nM in [4] and 20 nM in data set [5]. `CCn1cncc1-c1c[nH]c2ccc(OC)cc12`: in data set [2], the CLint scaled came to 0.221 L/h/kg. In addition, in data set [6], the Kp was 6.34.

For the compound `Cc1nn(C)c(C)c1-c1ccc(O)c(CCN(C)C)c1`, in data set [3], the affinity, expressed as Ki, was 0.47 nM. Consider `COc1cccc(CCN2CCN(c3ccccc3OC)CC2)c1`, for which the Ki in data set [4] came to 24.5 nM; in data set [5], 2.37 nM. For `O=C1c2cccc3cccc(c23)N1CCCCCN1CCN(c2ccccc2)CC1` [UCM-5600], the affinity in data set [7], expressed as Ki, was 89 nM. As to `Cc1ccc2c(c1)c1c(n2CCc2ccccc2)CCN(C)C1` [MARITUPIRDINE], the Ki in [8] and in data set [9] was 1.2 to 2 nM each time.
